Earlier results as cited in patent US7803402B2, “Pharmaceutical preparations” (priority 2002, dated 2010).

How the values were obtained:
[1] = in vivo
[2] = cefixime in the circulation

C=CC1=C(C(=O)O)N2C(=O)[C@@H](NC(=O)/C(=N\OCC(=O)O)c3csc(N)n3)[C@H]2SC1 [Cefixime]
solubility in dehydrated alcohol (dehydrated alcohol): sparingly soluble
solubility in ethyl acetate (ethyl acetate): practically insoluble
solubility in methyl alcohol (methyl alcohol): freely soluble
solubility in water (water): slightly soluble
eliminated by nonrenal mechanisms [1]: Up to 60%
placental transfer [1]: crosses the placenta
removal by dialysis [1]: not substantially removed
bound to plasma proteins [2]: About 65%
